The results in this text go back to US20120172329A1, “PHYTOCHEMICAL COMPOSITIONS INCLUDING XANTHONES FOR ANTI-INFLAMMATORY, ANTI-CYTOKINE STORM, AND OTHER USES” (Thailand Excellence Center for Tissue Engineering, priority 2009, published 2012).

Holding throughout (format): cell-based
Assay [1] concerns LPS induced peripheral blood mononuclear cells (PBMCs). The assay can be described thus: IL-2 gene expression relative to GAPDH in LPS induced PBMCs incubated with sesamin (RT-PCR), Example Seven. Particulars: culture 4, 1.0 ug/ml of sesamin; greatest increase. Here is the method:
(§1) Experiments were conducted to evaluate the effect of particular phytochemical compositions provided by the present disclosure on IL-2 gene expression in specified cells found within a body of a living organism. Cells used for the experiment described in this example are LPS induced peripheral blood mononuclear cells (PBMCs). It is understood by a person having ordinary skill in the art that the PBMCs may be substituted for other immune cells found within the body. It is also understood by a person having ordinary skill in the art that other inducing substances or chemicals besides LPS, for example viral antigens, may also be used for inducing the PBMCs.
To conduct the experiments of example seven, PBMCs were isolated and prepared using methods or techniques known to a person having ordinary skill in the art. An exemplary method or techniques is the differential density gradient centrifugation technique, the steps or process steps of which is known to a person of ordinary skill in the art. In addition, LPS can be obtained from a commercial source, for example Sigma-Aldrich Co. […]
The amount or level of IL-2 gene expression in the PBMCs was measured or determined using methods or techniques known to a person having ordinary skill in the relevant art. In example three, Real-Time PCR (RT-PCR) was used for quantifying the amount of IL-2 gene expression in the PBMCs.

The test system of assay [2] is lipopolysaccharide (LPS) induced synovial fibroblast (SF) cells. The assay is described as follows: IL-1 gene expression relative to GAPDH in LPS induced synovial fibroblast cells incubated with sesamin (RT-PCR), Example Five. As to the method: Experiments were conducted to evaluate the effect of particular phytochemical compositions provided by the present disclosure on IL-1 gene expression in specified cells found within a body of a living organism. The cells used for the experiment described in […] are lipopolysaccharide (LPS) induced synovial fibroblast (SF) cells. The SF cells were isolated from synovium tissue (also referred to as synovial tissue) using a standard cell isolation technique or method that is known to a person of ordinary skill in the art. In addition, LPS is obtained from a commercial source, for example Sigma-Aldrich Co. It is understood by a person having ordinary skill in the art that the SF cells may be substituted with other immune cells found within the body, for example lymphocytes, monocytes, and macrophages. […]
The amount or level of IL-1 gene expression in the SF cells was measured or determined using methods or techniques known to a person having ordinary skill in the relevant art. In example five, Real-Time PCR (RT-PCR) was used for quantifying the amount of IL-1 gene expression in the SF cells. IL-1beta or IL-1β specific primers were used during RT-PCR, thereby facilitating or effectuating the quantification of IL-1β gene expression in the SF cells. […]

Assay [3] has as its system LPS induced peripheral blood mononuclear cells (PBMCs). The assay is described as follows: IL-1 released by LPS induced PBMCs incubated with sesamin (ELISA), Example Six. Here is the method: as §1, with “quantity of IL-1 released by” for “IL-2 gene expression in”
To conduct the experiments of example six, PBMCs were isolated and prepared using methods or techniques known to a person having ordinary skill in the art. An exemplary method or techniques is the differential density gradient centrifugation technique, the steps or process steps of which is known to a person of ordinary skill in the art. In addition, LPS can be obtained from a commercial source, for example Sigma-Aldrich Co.
The PBMCs are cultured in 10% fetal calf serum in RPMI1640 medium. Seven cultures of PBMCs, i.e. culture 1 to culture 7, were prepared. The contents of each of cultures 1 to 7 were as follows:
(i) Culture 1: First control culture. Includes a predetermined volume of PBMCs (1×10^5 PBMCs/culture);
(ii) Culture 2: Second control culture. Includes the predetermined volume of PBMCs (1×10^5 PBMCs/culture) and LPS at a concentration of 20 ng/ml;
(iii) Culture 3: Includes the predetermined volume of the specified concentration of PBMCs, LPS at a concentration of 20 ng/ml, and a volume of phytochemical composition providing 0.1 uM of sesamin; […]
After a predetermined time period, quantity of IL-1 in each of cultures 1 to 7 was quantified using the ELISA technique (e.g., Biotrak Easy ELISA Aersham). The quantity of IL-1 detected by the ELISA technique in each of cultures 1 to 7 reflects the quantity of IL-1 released by the PBMCs of that culture.
For orientation: An ELISA detects its analyte on a solid surface through an enzyme-linked reagent.

As for `c1cc2c(cc1[C@H]1OC[C@H]3[C@@H]1CO[C@@H]3c1ccc3c(c1)OCO3)OCO2` [sesamin], the “increase in IL-2 gene expression relative GAPDH” value in assay [1] is recorded as “approximately 220%”. Moreover, the “IL-1 gene expression relative to GAPDH decreased” value was “approximately 20%” in assay [2] (culture 4, 0.025 mM sesamin, vs control culture 3, minimal decrease) and “approximately 65%” in assay [2] (culture 9, 1.0 mM sesamin, vs control culture 2, maximal decrease). For the same molecule, the “decrease in quantity of IL-1” value in assay [3] (culture 3, 0.1 uM sesamin, vs control culture 1, minimum decrease) was “approximately 5%”; in assay [3] (culture 4, 0.5 uM sesamin, vs control culture 1, minimum decrease), “approximately 5%”; in assay [3] (culture 7, 10 uM sesamin, vs control culture 2, maximum decrease) it was “approximately 35%”.
